From patent publication US4833257A, “Compositions of matter and methods of using same” (Arizona Board of Regents, priority 1986, dated 1989)
Converted amounts (≈) assume the structure as drawn. Read-outs that look alike come from different tables or passages of the source.

What was measured:
[1] = system: P388 lymphocytic leukemia (PS system); assay: in vivo antitumor test in mice bearing P388 lymphocytic leukemia (PS system), life extension / T/C
Description: (§1) The isolation and purification methods chosen can be monitored at each step by performing in-vitro and/or in-vivo antitumor tests as described by R. I. Geran, N. H. Greenberg, M. M. MacDonald, A. M. Schumacher and B. S. Abbot in Cancer Chemother. Rep. Part 3, Vol 3: 1-103 (1972); and by Schmidt, J. M.; Pettit, G. R. in Experientia 1978, 34: 659-660. Such tests include the determination of the concentration of active material required to inhibit the growth of tumor cells in culture, (e.g. the concentration required to inhibit growth by 50 percent or the E.D.50) and of the dose of active material required to prolong the life of mice bearing transplanted tumors. The chemical structures of the bryostatins of the present invention are shown below and the physical characteristics are reported in the pertinent examples. The structures are: [drawing 2]

[2] = system: P388 lymphocytic leukemia (PS cell line); assay: P388 lymphocytic leukemia (PS) cell line growth inhibition; type: cell-based, murine; settings: Mus musculus
Description: as §1

[3] = system: P388 lymphocytic leukemia and other NCI test systems; assay: cell growth inhibitory and antineoplastic activity against P388 lymphocytic leukemia and other NCI test systems; design: species or system murine
Description: as §1

[4] = P388 lymphocytic leukemia cell line, read-out: PS cell line growth inhibition ED50

For `CCC/C=C/C=C/C(=O)O[C@H]1/C(=C/C(=O)OC)C[C@H]2C[C@H]([C@@H](C)O)OC(=O)C[C@H](O)C[C@@H]3C[C@H](OC(=O)CCC)C(C)(C)[C@](O)(C[C@@H]4C/C(=C/C(=O)OC)C[C@H](/C=C/C(C)(C)[C@]1(O)O2)O4)O3` [Bryostatin 12], which life extension ([1]; at 30-50 μg/kg) is on record?
Its life extension is 47-68%.

And the IC50 [2, 4]?
Its IC50 is 14 ng/mL (≈ 15 nM).

What about the “cell growth inhibitory and antineoplastic activity” value [3] of the same compound?
Its value is “substantial cell growth inhibitory and antineoplastic activity”.

What does the source list for `COC(=O)/C=C1/C[C@H]2C[C@]3(O)O[C@H](C[C@@H](O)CC(=O)O[C@@H]([C@@H](C)O)C[C@@H]4C/C(=C\C(=O)OC)C[C@@](O)(O4)C(C)(C)/C=C/[C@@H](C1)O2)C[C@H](OC(C)=O)C3(C)C` [Bryostatin 11]?
in vivo growth inhibition ([1]; at 92.5 μg/kg): 64%; IC50 [2, 4]: 0.018 ng/mL (≈ 0.0235 nM); cell growth inhibitory and antineoplastic activity [3]: substantial cell growth inhibitory and antineoplastic activity

`CCCC(=O)O[C@H]1/C(=C/C(=O)OC)C[C@H]2C[C@H]([C@@H](C)O)OC(=O)C[C@H](O)C[C@@H]3C[C@H](OC(C)=O)C(C)(C)[C@](O)(C[C@@H]4C/C(=C/C(=O)OC)C[C@H](/C=C/C(C)(C)[C@]1(O)O2)O4)O3` [Bryostatin 9] was tested. Which life extension ([1]; at 80 μg/kg) did it give?
Its life extension is 40%.

And the IC50 ([2]; P388 lymphocytic leukemia, growth inhibition, read-out: PS ED50)?
Its IC50 is 1.2 ng/mL (≈ 1.41 nM).

And the “cell growth inhibitory and antineoplastic activity” value [3]?
The value was “substantial cell growth inhibitory and antineoplastic activity”.

Which results are given for `CCCC(=O)O[C@H]1C[C@H]2C[C@@H](O)CC(=O)O[C@@H]([C@@H](C)O)C[C@@H]3C/C(=C\C(=O)OC)C[C@@](O)(O3)C(C)(C)/C=C/[C@H]3C/C(=C\C(=O)OC)C[C@@H](C[C@](O)(O2)C1(C)C)O3` [Bryostatin 13]?
IC50 [2, 4]: 5.4 ng/mL (≈ 6.79 nM); cell growth inhibitory and antineoplastic activity [3]: substantial cell growth inhibitory and antineoplastic activity
